ChEMBL document CHEMBL1143507, “Molecular-modeling based design, synthesis, and activity of substituted piperidines as gamma-secretase inhibitors” (Bioorg Med Chem Lett, 2005)

Experiments:
[1] = target: T1, Amyloid-beta precursor protein (Homo sapiens, UniProt P05067); experiment: In vitro effective concentration against beta amyloid protein 42 in ELISA; increase in presence of weak inhibitor
Target sequence in this assay (P05067 whole entry): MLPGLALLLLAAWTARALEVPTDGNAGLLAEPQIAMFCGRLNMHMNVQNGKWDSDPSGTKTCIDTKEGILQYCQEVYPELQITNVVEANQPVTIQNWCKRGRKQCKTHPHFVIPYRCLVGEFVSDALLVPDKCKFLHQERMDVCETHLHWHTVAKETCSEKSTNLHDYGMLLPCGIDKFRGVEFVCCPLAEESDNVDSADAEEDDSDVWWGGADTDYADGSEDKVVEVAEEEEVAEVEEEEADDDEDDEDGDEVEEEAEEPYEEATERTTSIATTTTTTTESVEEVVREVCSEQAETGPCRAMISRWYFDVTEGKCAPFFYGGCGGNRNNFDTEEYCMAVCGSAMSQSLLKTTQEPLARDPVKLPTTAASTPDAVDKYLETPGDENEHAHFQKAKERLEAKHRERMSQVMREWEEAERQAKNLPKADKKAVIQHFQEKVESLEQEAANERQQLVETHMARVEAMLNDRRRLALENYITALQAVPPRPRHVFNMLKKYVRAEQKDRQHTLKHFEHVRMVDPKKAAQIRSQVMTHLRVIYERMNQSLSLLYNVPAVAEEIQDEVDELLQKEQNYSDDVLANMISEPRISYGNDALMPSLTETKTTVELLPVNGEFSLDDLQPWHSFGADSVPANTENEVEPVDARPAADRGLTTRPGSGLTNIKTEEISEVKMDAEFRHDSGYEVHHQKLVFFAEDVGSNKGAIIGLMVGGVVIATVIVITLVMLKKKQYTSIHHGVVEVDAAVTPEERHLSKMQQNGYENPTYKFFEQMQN

[2] = target: T1, Amyloid-beta precursor protein; experiment: In vitro reduction of Swedish NL mutant amyloid precursor protein activity expressed in CHO cells; assay type: functional, cell-based
Target sequence in this assay (P05067 18-770 limits assumed): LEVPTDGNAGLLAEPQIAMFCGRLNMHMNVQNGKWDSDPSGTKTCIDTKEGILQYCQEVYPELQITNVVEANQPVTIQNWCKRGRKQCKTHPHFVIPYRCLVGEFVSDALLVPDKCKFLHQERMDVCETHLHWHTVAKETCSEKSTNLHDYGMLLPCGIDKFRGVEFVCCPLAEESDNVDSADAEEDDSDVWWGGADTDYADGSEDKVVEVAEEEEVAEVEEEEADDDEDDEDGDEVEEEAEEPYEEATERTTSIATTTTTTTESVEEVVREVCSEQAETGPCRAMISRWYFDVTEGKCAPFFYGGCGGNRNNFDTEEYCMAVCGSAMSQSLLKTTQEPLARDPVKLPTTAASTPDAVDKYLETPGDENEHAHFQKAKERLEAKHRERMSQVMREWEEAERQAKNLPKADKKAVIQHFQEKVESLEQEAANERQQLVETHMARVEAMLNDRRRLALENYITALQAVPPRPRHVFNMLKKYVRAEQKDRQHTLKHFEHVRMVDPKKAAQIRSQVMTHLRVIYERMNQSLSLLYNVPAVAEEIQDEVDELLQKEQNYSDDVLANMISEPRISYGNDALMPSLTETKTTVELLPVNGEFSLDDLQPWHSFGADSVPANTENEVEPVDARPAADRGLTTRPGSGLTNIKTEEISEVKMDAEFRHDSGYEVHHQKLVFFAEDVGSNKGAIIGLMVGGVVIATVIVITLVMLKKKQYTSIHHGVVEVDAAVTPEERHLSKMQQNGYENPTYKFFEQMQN

[3] = target: T1, Amyloid-beta precursor protein; experiment: In vitro elevation of beta C-terminal fragment (Ct-99) in CHO cells expressing mutant Swedish NL human APP; assay type: functional, cell-based
Target sequence in this assay (P05067 18-770 limits assumed): as above

[4] = target: T1, Amyloid-beta precursor protein; experiment: Percent inhibition of beta amyloid protein 40 activity in ELISA at 100 uM
Target sequence in this assay (P05067 whole entry): as the sequence (P05067 whole entry) above

Row | Structure (SMILES) | EC50 [1] | other results
1 | CCOC(=O)N1CCC(c2ccccc2OC)(S(=O)(=O)c2ccc(Cl)cc2)CC1 |  | EC50 [2]: 530 nM; EC50 [3]: 640 nM
2 | CCOC(=O)N1CCC(c2ccccc2)(S(=O)(=O)c2ccccc2)CC1 | Increase | inhibition [4]: 84%
3 | CCOC(=O)N1CCC(c2ccccc2OC)(S(=O)(=O)c2ccccc2)CC1 | Increase | 
4 | CCOC(=O)N1CCC(c2ccccc2C)(S(=O)(=O)c2ccccc2)CC1 | Increase | 

Second part, led by results:

Row | EC50 [1] | Structure (SMILES) | other results
5 | Increase | CCOC(=O)N1CCC(c2ccccc2OC)(S(=O)(=O)c2ccc(OC)cc2)CC1 | 
6 | Increase | CCOC(=O)N1CCC(c2ccccc2)(S(=O)(=O)c2ccc(OC)cc2)CC1 | 
7 | Increase | CCOC(=O)N1CCC(c2ccccc2C)(S(=O)(=O)c2ccc(OC)cc2)CC1 | 
